# Entries after “also recorded” stand apart in the source; their conditions may differ.
# Tests used:
# DAT [1] = conditions: cited from earlier work
# DAT [2] = conditions: non-human primates, within 2 h post injection; cited from earlier work
# [3] = In vivo regional brain tissue distribution of 18F-labeled ligands in rats; design: species or system Sprague Dawley rats; conditions: rat; for Regional uptake of radioactivity, Cerebellum / Regional uptake of radioactivity, Cortex (Cx) / Regional uptake of radioactivity, Striatum / Uptake of radioactivity, Blood / Uptake of radioactivity, Bone / Uptake of radioactivity, Brain: i.v., 18F-labeled
# Text: The in vivo regional brain tissue distribution of [^18F]
# rat brain DAT [4] = target: T1, rat brain DAT (Rattus norvegicus, UniProt P23977); assay: In vivo specificity: RTI-113 block before the 18F ligand in rats
# T1 construct: from tissue; host or cells: brain of living male Sprague Dawley rats (striatum, cortex, cerebellum dissected)
# Description: To determine the in vivo specificity of FBNT analogs [^18F] […] 6a, 6d and 6e. The rats were sacrificed 60 minutes after injection of [^18F] […] 6a, 6d and 6e, in the DAT transporter rich striatum.
# rat brain DAT [5] = target: T1, rat brain DAT; assay: In vivo selectivity: block with monoamine transporter ligands before [18F]FBCINT in rats; conditions: 60 minutes
# Description: FBCINT. The rats were sacrificed 60 minutes after injection of [^18F] FBCINT and the striatum, cortex, prefrontal cortex, olfactory tubercles and cerebellum were dissected and the uptake of radioactivity determined. The monoamine transporter ligands administered were RTI-113 (DAT), paroxetine (SERT) and reboxetine (NET). […] FBCINT in the DAT transporter rich striatum and olfactory tubercles. […] FBCINT.
# [6] = PET brain imaging in a rhesus monkey; type: in vivo
# Description: The regional distribution of E-[^18F] […] Dynamic emission data were acquired using a 35 frame acquisition protocol which included twelve 30 second scans, six one minute scans, six 3 minute scans, five 10 minute scans and six 20 minute scans.
# striatal DAT [7] = assay: Chase (displacement) study with β-CIT, PET in rhesus monkey; type: in vivo; conditions: for displacement from striatum by β-CIT: PET
# Description: A chase study with E-[^18F] FBCINT and β-CIT, a DAT ligand, was also performed in the same rhesus monkey. At 195 minutes p.i. 3.0 mg (0.9 μmol/kg) of β-CIT, was administered intravenously and dynamic imaging was continued for an additional 40 minutes (eight 5 minute scans). […] The displacement of E-[^18F] […] The regional distribution and kinetic behavior of E-[^18F] […] FBFNT (6e) were next compared in the brain of awake rhesus monkeys.
# striatal DAT [8] = assay: PET imaging in awake rhesus monkeys; type: in vivo, rhesus monkey
# Description: The regional kinetics of [^18F] […] Both [^18F] […] [^18F] […] The peak uptake ratio of striatumwcerebellum was 4:1 at 20 minutes for [^18F] […] 6d. The in vivo ratio of [1^18F] […] FECNT, 5:1. [^18F]
# [9] = Stability to metabolism and in vivo loss of fluorine-18
# [10] = 60 min, 5 mg/kg RTI-113 i.v. 15 minutes prior
# T1 sequence (P23977 whole entry): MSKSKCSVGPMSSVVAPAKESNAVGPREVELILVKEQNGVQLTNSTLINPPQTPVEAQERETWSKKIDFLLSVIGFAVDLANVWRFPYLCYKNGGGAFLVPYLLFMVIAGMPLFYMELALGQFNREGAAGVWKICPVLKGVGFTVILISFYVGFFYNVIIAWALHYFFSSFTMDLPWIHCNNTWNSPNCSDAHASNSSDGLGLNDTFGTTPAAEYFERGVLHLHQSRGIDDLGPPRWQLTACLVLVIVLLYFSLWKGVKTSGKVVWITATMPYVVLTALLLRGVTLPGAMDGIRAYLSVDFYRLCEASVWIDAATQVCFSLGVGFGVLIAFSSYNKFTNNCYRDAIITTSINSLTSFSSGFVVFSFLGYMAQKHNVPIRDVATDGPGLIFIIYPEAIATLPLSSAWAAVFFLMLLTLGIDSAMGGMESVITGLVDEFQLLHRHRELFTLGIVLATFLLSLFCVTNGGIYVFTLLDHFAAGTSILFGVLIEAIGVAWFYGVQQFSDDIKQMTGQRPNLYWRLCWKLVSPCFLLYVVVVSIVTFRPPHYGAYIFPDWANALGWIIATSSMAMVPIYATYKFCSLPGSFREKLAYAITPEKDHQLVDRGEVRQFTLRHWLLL
smiles,measurement,setting,value
"COC(=O)C1C(c2ccc(Cl)cc2)CC2CCC1N2C/C=C/[123I] (stereo not shown) [MMG/142, IPT]",in vitro selectivity (DA/5-HT),DAT [1],~7
same,striatal to cerebellum ratios,DAT [2],15 to 1
"COC(=O)C1C(c2ccc(Cl)cc2)CC2CCC1N2C/C=C/CF (stereo not drawn) [6d, N-((E)-4-fluorobut-2-en-1-yl)-2β-carbomethoxy-3β-(4-chlorophenyl)nortropane]",clearance from striatal tissue,[3]; at 120 minutes compared to 5 minutes post injection,50%
same,"Regional uptake of radioactivity, Cerebellum",[3]; 5 min,0.52 % dose/g
same,"Regional uptake of radioactivity, Cortex (Cx)",[3]; 5 min,0.76 % dose/g
same,"Regional uptake of radioactivity, Striatum",[3]; 5 min,1.33 % dose/g
same,"Uptake of radioactivity, Blood",[3]; 5 min,0.14 % dose/g
same,"Uptake of radioactivity, Bone",[3]; 5 min,0.30 % dose/g
same,"Uptake of radioactivity, Brain",[3]; 5 min,0.66 % dose/g
same,"Regional uptake of radioactivity, Cerebellum",[3]; 30 min,0.19 % dose/g
same,"Regional uptake of radioactivity, Cortex (Cx)",[3]; 30 min,0.40 % dose/g
same,"Regional uptake of radioactivity, Striatum",[3]; 30 min,1.31 % dose/g
same,"Uptake of radioactivity, Blood",[3]; 30 min,0.16 % dose/g
same,"Uptake of radioactivity, Bone",[3]; 30 min,0.80 % dose/g
same,"Uptake of radioactivity, Brain",[3]; 30 min,0.29 % dose/g
same,"Regional uptake of radioactivity, Cerebellum",[3]; 60 min,0.10 % dose/g
same,"Regional uptake of radioactivity, Cortex (Cx)",[3]; 60 min,0.13 % dose/g
same,"Regional uptake of radioactivity, Striatum",[3]; 60 min,0.61 % dose/g
same,"Uptake of radioactivity, Blood",[3]; 60 min,0.10 % dose/g
same,"Uptake of radioactivity, Bone",[3]; 60 min,1.35 % dose/g
same,"Uptake of radioactivity, Brain",[3]; 60 min,0.14 % dose/g
same,"Regional uptake of radioactivity, Cerebellum",[3]; 120 min,0.13 % dose/g
same,"Regional uptake of radioactivity, Cortex (Cx)",[3]; 120 min,0.24 % dose/g
same,"Regional uptake of radioactivity, Striatum",[3]; 120 min,0.69 % dose/g
same,"Uptake of radioactivity, Blood",[3]; 120 min,0.13 % dose/g
same,"Uptake of radioactivity, Bone",[3]; 120 min,1.9 % dose/g
same,"Uptake of radioactivity, Brain",[3]; 120 min,0.17 % dose/g
same,"Regional uptake of radioactivity, Striatum","[3]; 120 min, listed as [F-18]FBCINT",2.5 % dose/g
same,"Regional uptake of radioactivity, Cerebellum",rat brain DAT [4]; [10],0.12 % dose/g
same,"Regional uptake of radioactivity, Cortex (Cx)",rat brain DAT [4]; [10],0.14 % dose/g
same,"Regional uptake of radioactivity, Striatum",rat brain DAT [4]; [10],0.15 % dose/g
same,"Uptake of radioactivity, Blood",rat brain DAT [4]; [10],0.12 % dose/g
same,"Uptake of radioactivity, Brain",rat brain DAT [4]; [10],0.12 % dose/g
same,effect of RTI-113 on uptake in the striatum,"rat brain DAT [4]; RTI-113 5 mg/kg i.v. 15 minutes prior, 60 minutes",significantly blocked
same,effect of GBR 12909 on uptake in striatum and olfactory tubercles,rat brain DAT [5]; 5 mg/kg i.v. 15 minutes prior,significantly blocked
same,effect of SERT and NET blocking agents on regional brain uptake,rat brain DAT [5]; 5 mg/kg i.v. 15 minutes prior,no effect
same,"Regional uptake, Cerebellum",rat brain DAT [5]; GBR 12909 5 mg/kg i.v.,0.15 % dose/g
same,"Regional uptake, Cortex (CX) (dry tissue)",rat brain DAT [5]; GBR 12909 5 mg/kg i.v.,0.69 % dose/g
same,"Regional uptake, Olfactory Tubercle (dry tissue)",rat brain DAT [5]; GBR 12909 5 mg/kg i.v.,1.07 % dose/g
same,"Regional uptake, Prefrontal Cx (dry tissue)",rat brain DAT [5]; GBR 12909 5 mg/kg i.v.,1.02 % dose/g
same,"Regional uptake, Striatum (dry tissue)",rat brain DAT [5]; GBR 12909 5 mg/kg i.v.,1.51 % dose/g
same,"Regional uptake, Cerebellum",rat brain DAT [5]; No Block,0.13 % dose/g
same,"Regional uptake, Cortex (CX) (dry tissue)",rat brain DAT [5]; No Block,0.53 % dose/g
same,"Regional uptake, Olfactory Tubercle (dry tissue)",rat brain DAT [5]; No Block,5.26 % dose/g
same,"Regional uptake, Prefrontal Cx (dry tissue)",rat brain DAT [5]; No Block,0.74 % dose/g
same,"Regional uptake, Striatum (dry tissue)",rat brain DAT [5]; No Block,6.96 % dose/g
same,"Regional uptake, Cerebellum",rat brain DAT [5]; Paroxetine 5 mg/kg i.v.,0.10 % dose/g
same,"Regional uptake, Cortex (CX) (dry tissue)",rat brain DAT [5]; Paroxetine 5 mg/kg i.v.,0.46 % dose/g
same,"Regional uptake, Olfactory Tubercle (dry tissue)",rat brain DAT [5]; Paroxetine 5 mg/kg i.v.,5.06 % dose/g
same,"Regional uptake, Prefrontal Cx (dry tissue)",rat brain DAT [5]; Paroxetine 5 mg/kg i.v.,0.67 % dose/g
same,"Regional uptake, Striatum (dry tissue)",rat brain DAT [5]; Paroxetine 5 mg/kg i.v.,4.47 % dose/g
same,"Regional uptake, Cerebellum",rat brain DAT [5]; Reboxetine 5 mg/kg i.v.,0.12 % dose/g
same,"Regional uptake, Cortex (CX) (dry tissue)",rat brain DAT [5]; Reboxetine 5 mg/kg i.v.,0.41 % dose/g
same,"Regional uptake, Olfactory Tubercle (dry tissue)",rat brain DAT [5]; Reboxetine 5 mg/kg i.v.,5.74 % dose/g
same,"Regional uptake, Prefrontal Cx (dry tissue)",rat brain DAT [5]; Reboxetine 5 mg/kg i.v.,0.77 % dose/g
same,"Regional uptake, Striatum (dry tissue)",rat brain DAT [5]; Reboxetine 5 mg/kg i.v.,6.64 % dose/g
same,striatum (S) uptake by PET,[6]; 180-210 min,2.7 μCi/mL
same,striatum uptake,[6]; PET,high striatum uptake; also recorded: region of highest uptake in the brain
same,displacement from striatum by β-CIT,striatal DAT [7],striatal washout; also recorded: significant reduction of activity in the striatum
same,displacement from striatum by β-CIT,striatal DAT [7]; listed as FBCINT,exhibited reversibility
same,washout half-time on displacement by β-CIT,striatal DAT [7]; β-CIT 0.9 μmol/kg i.v. at 195 minutes p.i.,21 min
same,striatal washout / time course of uptake,"striatal DAT [8]; awake rhesus monkey, decay corrected",very little if any washout; also recorded: appears constant at 115 minutes post injection
same,initial uptake in striatum and cerebellum,striatal DAT [8]; awake rhesus monkeys,high initial uptake in the striatum and very little uptake in the cerebellum
same,stability to metabolism and in vivo loss of fluorine-18,[9],stable to metabolism and in vivo loss of the fluorine-18 radioisotope
